Measured values from patent US9676771B2, “Compounds for inhibiting drug-resistant strains of HIV-1 integrase” (priority 2013, dated 2017).
Read-outs that look alike come from different tables or passages of the source.

Key:
in vitro = format: cell-based, human; conditions: human, Table 3; 50% reduction in the level of ATP in HOS cells
Description: Cellular Cytotoxicity Assay.
On the day of the screen, cells were treated with compounds at the appropriate concentration range chosen and incubated at 37° C. for 48 hrs. Cytotoxicity was measured by monitoring ATP levels via a luciferase reporter assay. Cells were lysed in 50 μL cell lysis buffer (PerkinElmer, Waltham, Mass.) and shaken at 700 rpm at room temperature for 5 mins After the addition of 50 μL of ATPlite buffer (PerkinElmer) directly onto the lysed cells and shaking at 700 rpm at room temperature for 5 mins, ATP levels were monitored by measuring luciferase activity using a microplate reader. Activity was normalized to cytotoxicity in the absence of target compounds. KaleidaGraph (Synergy Software, Reading, Pa.) was used to perform regression analysis on the data. CC50 values were determined from the fit model.

[1] = system: HIV-1 constructs containing wild-type IN; assay: microbe, parasite or virus in culture; format: cell-based; conditions: Human immunodeficiency virus 1; Table 3; WT IN; read-out: EC50 (nM, WT)
Source text: Single-Round HIV-1 Infectivity Assay.
Human embryonyl kidney cell culture cell line 293 was acquired from the American type Culture Collection (ATCC).
The virus-containing supernatants were then harvested, clarified by low-speed centrifugation, filtrated, and diluted for preparation in infection assays. […] Activity was normalized to infectivity in the absence of target compounds. KaleidaGraph (Synergy Software, Reading, Pa.) was used to perform regression analysis on the data. EC50 values were determined from the fit model.

HIV-1 integrase = HIV-1 integrase (Human immunodeficiency virus type 1 group M subtype B, UniProt P12497); assay: biochemical; format: biochemical
Description: In Vitro Integrase Assay.
Integrase reactions were carried out by adding drugs or an equivalent volume of 100% dimethyl sulfoxide (DMSO; used as the drug solvent) to a mixture of 20 nM DNA and 400 nM integrase in 50 mM morpholinepropanesulfonic acid (pH 7.2), 7.5 mM MgCl2, and 14 mM 2-mercaptoethanol. Reactions were performed at 37° C. for 2 h and quenched by the addition of an equal volume of loading buffer (formamide containing 1% sodium dodecyl sulfate, 0.25% bromophenol blue, and xylene cyanol). […] Dried gels were visualized using a Typhoon 8600 (GE Healthcare, Piscataway, N.J.). Densitometric analyses were performed using ImageQuant 5.1 software from GE Healthcare.

[2] = Table 1, 3′-processing, read-out: IC50 Values 3′-Processing
[3] = Table 1, strand transfer, read-out: IC50 Values Strand transfer
[4] = read-out: IC50 (3^+-Processing)
[5] = read-out: IC50 (Strand Transfer)
[6] = Table 4, 3′-processing, read-out: IC50 (3^+-Processing)
[7] = Table 4, strand transfer, read-out: IC50 (Strand Transfer)

Compound | CC50 (in vitro) | EC50 [1] | IC50 (HIV-1 integrase; [2]) | IC50 (HIV-1 integrase; [3]) | other results
COC(=O)[C@H](C)Nc1c(C(=O)NCc2ccc(F)cc2F)c(=O)n(O)c2ncccc12 [XZ394, (S)-methyl 2-((3-((2,4-difluorobenzyl)carbamoyl)-1-hydroxy-2-oxo-1,2-dihydro-1,8-naphthyridin-4-yl)amino)propanoat] | > 250 µM | 4.2 ± 1.6 nM |  |  | 
O=C(NCc1ccc(F)c(Cl)c1)c1c(O)c2cccnc2[nH]c1=O [XZ366, N-(3-chloro-4-fluorobenzyl)-4-hydroxy-2-oxo-1,2-dihydro-1,8-naphthyridine-3-carboxamide] |  |  | 125 ± 15 µM | 7.8 ± 1.1 µM | 
O=C(NCc1ccc(F)cc1F)c1c(NCCc2ccccc2)c2cccnc2n(O)c1=O [XZ382, N-(2,4-difluorobenzyl)-1-hydroxy-2-oxo-4-(phenethylamino)-1,2-dihydro-1,8-naphthyridine-3-carboxamide] | > 250 µM | 14.1 ± 7.9 nM |  |  | IC50 (HIV-1 integrase; [4]): 8 ± 1.5 µM; IC50 (HIV-1 integrase; [5]): 0.05 ± 0.012 µM
COC(=O)[C@@H](CO)Nc1c(C(=O)NCc2ccc(F)cc2F)c(=O)n(O)c2ncccc12 [XZ399, (R)-methyl 2-((3-((2,4-difluorobenzyl)carbamoyl)-1-hydroxy-2-oxo-1,2-dihydro-1,8-naphthyridin-4-yl)amino)-3-hydroxypropanoate] | > 250 µM | 14.2 ± 3.71 nM |  |  | IC50 (HIV-1 integrase; [4]): 4.4 ± 0.5 µM; IC50 (HIV-1 integrase; [5]): 0.013 µM
O=C(NCc1ccc(F)cc1F)c1c(O)c2cccnc2[nH]c1=O [XZ352, N-(2,4-difluorobenzyl)-4-hydroxy-2-oxo-1,2-dihydro-1,8-naphthyridine-3-carboxamide] |  |  | > 333 µM | 7.1 ± 1.8 µM | 
O=C(NCc1ccc(F)cc1F)c1c(O)c2ccc(N3CCOCC3)nc2n(O)c1=O [XZ412, N-(2,4-difluorobenzyl)-1,4-dihydroxy-7-morpholino-2-oxo-1,2-dihydro-1,8-naphthyridine-3-carboxamide] |  |  |  |  | IC50 (HIV-1 integrase; [6]): > 333 µM; IC50 (HIV-1 integrase; [7]): 1.9 ± 0.2 µM
COC(=O)CNc1c(C(=O)NCc2ccc(F)cc2F)c(=O)n(O)c2nc(N3CCOCC3)ccc12 [XZ414, methyl 2-((3-((2,4-difluorobenzyl)carbamoyl)-1-hydroxy-7-morpholino-2-oxo-1,2-dihydro-1,8-naphthyridin-4-yl)amino)acetate] |  |  |  |  | IC50 (HIV-1 integrase; [7]): 6.2 ± 0.8 µM
COC(=O)CNc1c(C(=O)NCc2ccc(F)cc2F)c(=O)n(O)c2nc(N3CCCCC3)ccc12 [XZ411, methyl 2-((3-((2,4-difluorobenzyl)carbamoyl)-1-hydroxy-2-oxo-7-(piperidin-1-yl)-1,2-dihydro-1,8-naphthyridin-4-yl)amino)acetate] |  |  |  |  | IC50 (HIV-1 integrase; [7]): 96 ± 40 µM
CCCCCNc1c(C(=O)NCc2ccc(F)cc2F)c(=O)n(O)c2ncccc12 [XZ380, N-(2,4-difluorobenzyl)-1-hydroxy-2-oxo-4-(pentylamino)-1,2-dihydro-1,8-naphthyridine-3-carboxamide] | 94.2 ± 24.4 µM | 7.4 ± 1.4 nM |  |  | IC50 (HIV-1 integrase; [4]): 8.2 ± 1.6 µM; IC50 (HIV-1 integrase; [5]): 0.024 ± 0.009 µM
CC(C)Nc1c(C(=O)NCc2ccc(F)cc2F)c(=O)n(O)c2ncccc12 [XZ381, N-(2,4-difluorobenzyl)-1-hydroxy-4-(isopropylamino)-2-oxo-1,2-dihydro-1,8-naphthyridine-3-carboxamide] | > 250 µM | 7.2 ± 3 nM |  |  | IC50 (HIV-1 integrase; [4]): 1.8 ± 0.2 µM; IC50 (HIV-1 integrase; [5]): 0.016 ± 0.004 µM
Nc1c(C(=O)NCc2ccc(F)cc2F)c(=O)n(O)c2nc(N3CCOCC3)ccc12 [XZ413, 4-amino-N-(2,4-difluorobenzyl)-1-hydroxy-7-morpholino-2-oxo-1,2-dihydro-1,8-naphthyridine-3-carboxamide] |  |  |  |  | IC50 (HIV-1 integrase; [6]): > 333 µM; IC50 (HIV-1 integrase; [7]): 54 ± 10 µM
O=C(NCc1ccc(F)cc1F)c1cc2cccc(O)c2n(O)c1=O [XZ369, N-(2,4-difluorobenzyl)-1,8-dihydroxy-2-oxo-1,2-dihydroquinoline-3-carboxamide] |  |  | 43 ± 5 µM | 18 ± 7 µM | 
O=C(NCc1ccc(F)c(F)c1)c1cc2cccc(O)c2n(O)c1=O [XZ375, N-(3,4-difluorobenzyl)-1,8-dihydroxy-2-oxo-1,2-dihydroquinoline-3-carboxamide] |  |  | 24 ± 3 µM | 0.78 ± 0.22 µM | 
COC(=O)[C@@H](Nc1c(C(=O)NCc2ccc(F)cc2F)c(=O)n(O)c2ncccc12)c1ccccc1 [XZ396, (S)-methyl 2-((3-((2,4-difluorobenzyl)carbamoyl)-1-hydroxy-2-oxo-1,2-dihydro-1,8-naphthyridin-4-yl)amino)-2-phenylacetate] | > 250 µM |  |  |  | 
O=C(NCc1ccc(F)c(Cl)c1)c1cc2cccc(O)c2n(O)c1=O [XZ374, N-(3-chloro-4-fluorobenzyl)-1,8-dihydroxy-2-oxo-1,2-dihydroquinoline-3-carboxamide] |  |  | 17 ± 1 µM | 0.53 ± 0.13 µM | 
NCCNc1c(C(=O)NCc2ccc(F)cc2F)c(=O)n(O)c2ncccc12 [XZ403, 4-((2-aminoethyl)amino)-N-(2,4-difluorobenzyl)-1-hydroxy-2-oxo-1,2-dihydro-1,8-naphthyridine-3-carboxamide] | 9.6 ± 3.7 µM | 34.7 ± 10.5 nM |  |  | IC50 (HIV-1 integrase; [4]): 4.5 ± 0.2 µM; IC50 (HIV-1 integrase; [5]): 0.039 ± 0.006 µM
O=C(NCc1ccc(F)c(F)c1)c1c(O)c2cccnc2[nH]c1=O [XZ368, N-(3,4-difluorobenzyl)-4-hydroxy-2-oxo-1,2-dihydro-1,8-naphthyridine-3-carboxamide] |  |  | 93 ± 8 µM | 8.1 ± 1.8 µM | 
NCc1ccc(-c2ccc(Nc3c(C(=O)NCc4ccc(F)cc4F)c(=O)n(O)c4ncccc34)cc2)cc1 [XZ389, 4-((4′-(aminomethyl)-[1,1′-biphenyl]-4-yl)amino)-N-(2,4-difluorobenzyl)-1-hydroxy-2-oxo-1,2-dihydro-1,8-naphthyridine-3-carboxamide] | 0.414 µM | 411 ± 30 nM |  |  | IC50 (HIV-1 integrase; [6]): > 333 µM; IC50 (HIV-1 integrase; [7]): 29 ± 13 µM
O=C(NCc1ccc(F)cc1)c1c(O)c2cccnc2[nH]c1=O [XZ364, N-(4-fluorobenzyl)-4-hydroxy-2-oxo-1,2-dihydro-1,8-naphthyridine-3-carboxamide] |  |  | 136 ± 16 µM | 5.1 ± 1.5 µM | 
Nc1c(C(=O)NCc2ccc(F)cc2F)c(=O)n(O)c2nc(N3CCCCC3)ccc12 [XZ410, 4-amino-N-(2,4-difluorobenzyl)-1-hydroxy-2-oxo-7-(piperidin-1-yl)-1,2-dihydro-1,8-naphthyridine-3-carboxamide] |  |  |  |  | IC50 (HIV-1 integrase; [6]): > 333 µM; IC50 (HIV-1 integrase; [7]): 54 ± 18 µM
COc1cccc2cc(C(=O)NCc3ccc(F)cc3F)c(=O)n(O)c12 [XZ370, N-(2,4-difluorobenzyl)-1-hydroxy-8-methoxy-2-oxo-1,2-dihydroquinoline-3-carboxamide] |  |  | > 333 µM | > 333 µM | 
O=C(NCc1ccc(F)cc1F)c1c(O)c2ccc(N3CCCCC3)nc2n(O)c1=O [XZ409, N-(2,4-difluorobenzyl)-1,4-dihydroxy-2-oxo-7-(piperidin-1-yl)-1,2-dihydro-1,8-naphthyridine-3-carboxamide] |  |  |  |  | IC50 (HIV-1 integrase; [6]): > 333 µM; IC50 (HIV-1 integrase; [7]): 70 ± 16 µM
O=C(NCc1ccc(F)cc1F)c1cc2ccccc2n(O)c1=O [XZ353, N-(2,4-difluorobenzyl)-1-hydroxy-2-oxo-1,2-dihydroquinoline-3-carboxamide] |  |  | > 333 µM | 19.7 ± 2.7 µM | 
COC(=O)[C@H](CO)Nc1c(C(=O)NCc2ccc(F)cc2F)c(=O)n(O)c2ncccc12 [XZ398, (S)-methyl 2-((3-((2,4-difluorobenzyl)carbamoyl)-1-hydroxy-2-oxo-1,2-dihydro-1,8-naphthyridin-4-yl)amino)-3-hydroxypropanoate] | > 250 µM | 9.7 ± 3 nM |  |  | IC50 (HIV-1 integrase; [4]): 5.8 ± 0.5 µM; IC50 (HIV-1 integrase; [5]): 0.0084 ± 0.0032 µM
CNc1c(C(=O)NCc2ccc(F)cc2F)c(=O)n(O)c2ncccc12 [XZ371, N-(2,4-difluorobenzyl)-1-hydroxy-4-(methylamino)-2-oxo-1,2-dihydro-1,8-naphthyridine-3-carboxamide] | > 250 µM | 3.1 ± 0.6 nM |  |  | IC50 (HIV-1 integrase; [4]): 3.7 ± 0.4 µM; IC50 (HIV-1 integrase; [5]): 0.027 ± 0.004 µM
